The text below walks through data of patent publication US20230074209A1, “METHOD AND DEVICE FOR PROVIDING DRUG RECOMMENDATION” (Cancerfree biotech Ltd., priority 2021, published 2023).

Data set [1] has as its system patient's CTC-derived organoid cultures. Kind of data set: Drug sensitivity assay of CTC-derived organoid cultures (CellTiter Glo ATP, relative cell viability). Format: cell-based, human. The conditions noted are these: for CTC sensitivity profiling: CTCs of patient; for relative cell viability: CTC-derived organoid cultures of patient, one week co-culture. An excerpt: In some embodiments, first, a liquid biopsy of the patient is obtained, and CTCs are then isolated from the liquid biopsy, and the CTCs are then expanded to obtain the CTC-derived organoid cultures. The liquid biopsy is, for example, a blood sample, such as a peripheral venous blood sample. In one example, the CTCs were isolated from the liquid biopsy, and the biomimetic cell culture system was then used to expand the CTCs in vitro to form the CTC-derived organoid cultures. In one example, Ficoll-Paque centrifugation was used to isolate peripheral blood mononuclear cells (PBMCs) containing the CTCs from the blood sample. The cells were then seeded onto a substrate of binary colloidal crystal (BCC) containing silica and polymethyl methacrylate (PMMA), and cultured in the biomimetic cell culture system for three weeks, with replacement of culture medium every four days. The expansion of the organoid cultures could be monitored by optical microscopy, and the presence of the CTCs could be confirmed by EpCAM and CD45 immunofluorescence staining. The CTC-derived organoid cultures were positive for EpCAM and negative for CD45 in the immunofluorescence staining
In one example, the CTC-derived organoid cultures were resuspended in a culture medium, and then divided into aliquots and loaded to 96-well plates for drug sensitivity assays. The aliquots were divided into a control group (not reacted with a drug) and drug test groups (respectively reacted with different drugs). For advanced pancreatic ductal adenocarcinoma, gemcitabine, 5-fluorouracil (5-FU), erlotinib, irinotecan, olaparib, oxaliplatin, paclitaxel, palbociclib and trametinib were selected as candidate drugs and tested against the CTC-derived organoid cultures at concentrations according to the clinical pharmacokinetics of each of the drugs, in order to mimic the effect of a clinical dose in patients. Different drug treatments were respectively added to each of the wells in the 96-well plates, after which cultures were continued to co-culture for one week. At the end of the assay period, viable cell counts were measured using cytosolic adenosine triphosphate (ATP) abundance (CellTiter Glo, Promega, Madison Wis., USA) via a luminometer (Promega). The relative cell viabilities of the CTC-derived organoid cultures respectively corresponding to the 9 candidate drugs were calculated by the formula: relative cell viability=(viable cell counts of the drug test group/viable cell counts of the control group)×100%. Lower cell viability following application of test treatments was indicative of greater drug sensitivity and better anti-tumor effect. However, the present disclosure is not limited to the above example, and other test methods or calculation methods can be used to obtain the relative cell viabilities.

The subject of a further data set is pancreatic cancer. The data set is described as follows: Clinical course of individual pancreatic cancer patients under treatment. The conditions noted are these: patient. It is filed as in vivo, human.
The mark [2] stands for this setting: locally advanced pancreatic cancer.
Setting [3] is: August 2019, 12 cycles of chemotherapy plus radiotherapy 44 Gy/20 Fx.

Experimental for pancreatic cancer: In one example, clinical response to treatment in patients was evaluated using Response Evaluation Criteria in Solid Tumors (RECIST) version 1.1 criteria.

Consider `O=C1[O][Pt]2([NH][C@@H]3CCCC[C@H]3[NH]2)[O]C1=O` [oxaliplatin], for which the CTC sensitivity profiling entry in data set [1] (setting [2]) is reported as “resistance”. `CCc1c2c(nc3ccc(OC(=O)N4CCC(N5CCCCC5)CC4)cc13)-c1cc3c(c(=O)n1C2)COC(=O)[C@]3(O)CC` [irinotecan]: in data set [1] (setting [2]), the CTC sensitivity profiling entry was “resistance”. In data set [1] (locally advanced pancreatic cancer, clinical-PK concentration), `C#Cc1cccc(Nc2ncnc3cc(OCCOC)c(OCCOC)cc23)c1` [erlotinib] came in with a relative cell viability of 27.8%. With FOLFIRINOX, in the data set with pancreatic cancer (setting [3]), the “abdominal CT scan response, liver metastases” value is listed as “partial response (PR)” and the “abdominal CT scan response, pancreatic mass” value is “stable disease (SD)”. For the same compound, in the data set on pancreatic cancer (November 2019, with liver, bone and peritoneal seeding), the “follow-up CT scan response, pancreatic tumor” value was “progressive disease (PD)”.

As to `CC(=O)O[C@H]1C(=O)[C@@]2(C)[C@H]([C@H](OC(=O)c3ccccc3)[C@]3(O)C[C@H](OC(=O)[C@H](O)[C@@H](NC(=O)c4ccccc4)c4ccccc4)C(C)=C1C3(C)C)[C@]1(OC(C)=O)CO[C@@H]1C[C@@H]2O` [paclitaxel], the CTC sensitivity profiling result in data set [1] (setting [2]) is on record as “resistance”. Regarding `O=c1[nH]cc(F)c(=O)[nH]1` [5-FU, 5-fluorouracil], the CTC sensitivity profiling entry in data set [1] (setting [2]) is “resistance”. `O=C(c1cc(Cc2n[nH]c(=O)c3ccccc23)ccc1F)N1CCN(C(=O)C2CC2)CC1` [olaparib] gave a relative cell viability in data set [1] (metastatic pancreatic cancer) of 16.7%.
